Assay results: US11547681B2, “N-acylethanolamide derivatives and uses thereof” (ELIEM THERAPEUTICS, INC., priority 2016, dated 2023)

Test: in vitro
Settings: for Concentration (μM) of analyte PEA, 0 min / Concentration (μM) of analyte PEA, 10 min / Concentration (μM) of analyte PEA, 20 min / Concentration (μM) of analyte PEA, 30 min / Concentration (μM) of analyte PEA, 60 min / % Remaining of Initial (n = 1), 0 min / % Remaining of Initial (n = 1), 10 min / % Remaining of Initial (n = 1), 20 min / % Remaining of Initial (n = 1), 30 min / % Remaining of Initial (n = 1), 60 min / microsomal CLint at 1 μM / half-life at 1 μM / Measured concentration of PEA (analyte) / % Remaining of Initial / Concentration, analyte PEA / % Remaining of Initial (n = 1) / microsomal CLint / half-life: male, Beagle, dog; for Concentration (μM) of analyte PEA, 0 min / Concentration (μM) of analyte PEA, 10 min / Concentration (μM) of analyte PEA, 20 min / Concentration (μM) of analyte PEA, 30 min / Concentration (μM) of analyte PEA, 60 min / % Remaining of Initial (n = 1), 0 min / % Remaining of Initial (n = 1), 10 min / % Remaining of Initial (n = 1), 20 min / % Remaining of Initial (n = 1), 30 min / % Remaining of Initial (n = 1), 60 min / Measured concentration of PEA (analyte) / % Remaining of Initial / Concentration, analyte PEA / % Remaining of Initial (n = 1): 1 μM
Protocol: (§1) Reaction mixture, minus cofactors, was prepared as described below. Test article was added into the reaction mixture at a final concentration of 1 μM. […] An aliquot of the reaction mixture (without cofactor cocktail) was equilibrated in a shaking water bath at 37° C. for 3 minutes. The reaction was initiated by the addition of cofactor cocktail, and the mixture was incubated in a shaking water bath at 37° C. Aliquots (100 μL) were withdrawn at 0, 10, 20, 30, and 60 minutes. Test article samples were immediately combined with 300 μL of ice-cold acetonitrile containing 1% formic acid. Control samples were immediately combined with 400 μL of ice-cold 50/50 acetonitrile (ACN)/dH2O containing 0.1% formic acid and internal standard to terminate the reaction. Samples were then mixed and centrifuged to precipitate proteins. Calibration standards were prepared in matched matrix. Samples and standards were assayed by LC-MS/MS using electrospray ionization for both the dosed prodrug and the expected drug (PEA). Analytical conditions are outlined in Appendix 8-1. Test article concentration at each time point was compared to test article concentration at time 0 to determine the percent remaining at each time point. Halflives were calculated using GraphPad software, fitting to a single-phase exponential decay equation.
as §1, with “for 5” for “for 3”, “minutes. Reaction” for “minutes. The reaction”, “and” for “and the”, “both” for “both the”, “Appendix 10-1.” for “Appendix 8-1.”
Reaction mixture, minus cofactors, was prepared as described below. Test article was added into the reaction mixture at a final concentration of 1 μM. […] An aliquot of the reaction mixture (without cofactor cocktail) was equilibrated in a shaking water bath at 37° C. for 3 minutes. Reaction was initiated by the addition of cofactor cocktail, and the mixture was incubated in a shaking water bath at 37° C. Aliquots (100 μL) were withdrawn at 0, 10, 20, 30, and 60 minutes. Test article samples were immediately combined with 300 μL of ice-cold acetonitrile containing 1% formic acid. Control samples were immediately combined with 400 μL of ice-cold 50/50 acetonitrile (ACN)/dH2O containing 0.1% formic acid and internal standard to terminate the reaction. Samples were then mixed and centrifuged to precipitate proteins. Calibration standards were prepared in matched matrix. Samples and standards were assayed by LC-MS/MS using electrospray ionization for both dosed prodrug and expected drug (PEA). Analytical conditions are outlined in Appendix 13-1. Test article concentration at each time point was compared to test article concentration at time 0 to determine the percent remaining at each time point. Halflives were calculated using GraphPad software, fitting to a single-phase exponential decay equation.

Row | Structure (SMILES) | Concentration (μM) of analyte PEA, 0 min (0 min) [µM] | Concentration (μM) of analyte PEA, 10 min (10 min) [µM] | Concentration (μM) of analyte PEA, 20 min (20 min) [µM] | Concentration (μM) of analyte PEA, 30 min (30 min) [µM] | Concentration (μM) of analyte PEA, 60 min (60 min) [µM] | % Remaining of Initial (n = 1), 0 min (s9, 0 h) [%] | % Remaining of Initial (n = 1), 10 min (s9, 10 min) [%] | % Remaining of Initial (n = 1), 20 min (s9, 20 min) [%] | % Remaining of Initial (n = 1), 30 min (s9, 0.5 h) [%] | % Remaining of Initial (n = 1), 60 min (s9, 1 h) [%] | microsomal CLint at 1 μM (s9, CLint (mL/min/mg protein)) [µL/min/mg] | half-life at 1 μM (s9, Half-life (min)) [min] | other results
1 | CCCCCCCCCCCCCCCC(=O)NCCOC(=O)CCC [Compound I-2] | 0.11 | 0.40 | 0.50 | 0.53 | 0.54 | 100 | 36 | 12 | 4.2 | <1.0 |  |  | 
2 | CCCCCCCCCCCCCCCC(=O)NCCOC(=O)CCC(=O)OCC(COC(=O)CCCCCCC)OC(=O)CCCCCCC (stereo not shown) [Compound I-3, PEA-Succinate-Glycerol-Di-Caprylic] | 0.015 | 0.23 | 0.28 | 0.29 | 0.50 | 100 | 46 | 46 | 34 | 18 | 36.8 | 19 | 
3 | CC/C=C\C/C=C\C/C=C\C/C=C\C/C=C\CCCC(=O)OCCNC(=O)CCCCCCCCCCCCCCC [Compound I-5] | 0.13 | 0.26 | 0.25 | 0.25 | 0.28 | 100 | 50 | 48 | 36 | 36 | 26.3 | 26 | 
4 | CCCCC/C=C\C/C=C\CCCCCCCC(=O)OCCNC(=O)CCCCCCCCCCCCCCC [Compound I-6] | 0.26 | 0.42 | 0.38 | 0.35 | 0.36 | 100 | 54 | 53 | 45 | 38 | 20.1 | 34 | 
5 | CCCCCCCCCCCCCCCC(=O)NCCOC(=O)CCC(=O)OC[C@H]1O[C@@](CO)(O[C@H]2O[C@H](CO)[C@@H](O)[C@H](O)[C@H]2O)[C@@H](O)[C@@H]1O [Compound I-7] | 0.38 | 0.36 | 0.55 | 0.51 | 0.50 | 100 | 1.1 | <1.0 | <1.0 | <1.0 | 452 | 1.5 | 
6 | CCCCCCCCCCCCCCCC(=O)NCCOC(=O)CCC(=O)OC(CO)CO [Compound I-8] |  |  |  |  |  |  |  |  |  |  |  |  | Measured concentration of PEA (analyte) (0 min): 0.33 µM; Measured concentration of PEA (analyte) (10 min): 0.71 µM; Measured concentration of PEA (analyte) (20 min): 0.81 µM; Measured concentration of PEA (analyte) (30 min): 0.67 µM; Measured concentration of PEA (analyte) (60 min): 0.81 µM; % Remaining of Initial (s9, 0 h): 100%; % Remaining of Initial (s9, 10 min): <1.0%; % Remaining of Initial (s9, 20 min): <1.0%; % Remaining of Initial (s9, 0.5 h): <1.0%; % Remaining of Initial (s9, 1 h): <1.0%; microsomal CLint at 1 μM (s9, CLint): > 69.3 µL/min/mg; half-life at 1 μM (s9, Half-life): < 10 min
7 | CCCCCCCCCCCCCCCC(=O)NCCOC(=O)CCC(=O)OCC(O)CO (stereo not shown) [Compound I-9] | 0.26 | 0.48 | 0.47 | 0.46 | 0.45 | 100 | <1.0 | <1.0 | <1.0 | <1.0 | > 691 | < 1 | 
8 | CCCCCCCCCCCCCCCC(=O)NCCOC(=O)CCC(=O)OCC(COC(=O)CCC)OC(=O)CCC (stereo not shown) [Compound I-11] | 0.032 | 0.23 | 0.38 | 0.74 | 0.88 | 100 | 1.8 | <1.0 | <1.0 | <1.0 |  |  | 
9 | CCCCC/C=C\C/C=C\CCCCCCCC(=O)OCC(COC(=O)CCC(=O)OCCNC(=O)CCCCCCCCCCCCCCC)OC(=O)CCCCCCC/C=C\C/C=C\CCCCC (stereo not shown) [Compound I-13] |  |  |  |  |  |  |  |  |  |  |  |  | Concentration, analyte PEA (0 min): 58 nM; Concentration, analyte PEA (10 min): 95 nM; Concentration, analyte PEA (20 min): 100 nM; Concentration, analyte PEA (30 min): 89 nM; Concentration, analyte PEA (60 min): 170 nM; % Remaining of Initial (n = 1) (s9, 0 h): 100%; % Remaining of Initial (n = 1) (s9, 10 min): 67%; % Remaining of Initial (n = 1) (s9, 20 min): 63%; % Remaining of Initial (n = 1) (s9, 0.5 h): 46%; % Remaining of Initial (n = 1) (s9, 1 h): 49%
10 | CCCCCCCCCCCCCCCC(=O)NCCOC(=O)CCC(=O)OC(COC(=O)CCC)COC(=O)CCC [Compound I-16] |  |  |  |  |  |  |  |  |  |  |  |  | Measured concentration of PEA (analyte) (0 min): 0.042 µM; Measured concentration of PEA (analyte) (10 min): 0.50 µM; Measured concentration of PEA (analyte) (20 min): 0.57 µM; Measured concentration of PEA (analyte) (30 min): 0.54 µM; Measured concentration of PEA (analyte) (60 min): 0.68 µM; % Remaining of Initial (s9, 0 h): 100%; % Remaining of Initial (s9, 10 min): 1.7%; % Remaining of Initial (s9, 20 min): <1.0%; % Remaining of Initial (s9, 0.5 h): <1.0%; % Remaining of Initial (s9, 1 h): <1.0%; microsomal CLint at 1 μM (s9, CLint): > 69.3 µL/min/mg; half-life at 1 μM (s9, Half-life): < 10 min
11 | C[C@]12CC[C@H]3[C@@H](CCC4=CC(=O)CC[C@@]43C)[C@@H]1CC[C@@H]2O [Testosterone, testosterone, reference compound] |  |  |  |  |  |  |  |  |  |  |  |  | CLin (control compound, dog intestinal S9 fraction): <0.0116 ml/min/mg protein; microsomal CLint (s9, CLint (ml/min/mg protein), calculated value in parentheses, control compound, dog intestinal S9 fraction, calculated value beyond duration of experiment): 7.22 µL/min/mg; microsomal CLint (s9, CLint (ml/min/mg protein), control compound, dog intestinal S9 fraction): < 11.6 µL/min/mg; microsomal CLint (s9, CLint, Control Compound, Dog intestinal S9 fraction): < 11.6 µL/min/mg; microsomal CLint (s9, CLint, Dog intestinal S9 fraction, control compound): < 11.6 µL/min/mg; half-life (s9, Half-life (min), calculated value in parentheses, control compound, dog intestinal S9 fraction, calculated value beyond duration of experiment): 96 min; half-life (s9, Half-life (min), control compound, dog intestinal S9 fraction): > 60 min; half-life (s9, Half-life, Control Compound, Dog intestinal S9 fraction): > 60 min; half-life at 1 μM (s9, Half-life, Dog intestinal S9 fraction): > 60 min; half-life (s9, Half-life, control compound, dog intestinal S9 fraction): > 60 min
